Experimental data from article PMC6925736, “Development of a HPLC-MS/MS Method to Determine the 13 Elements of Semen Cuscutae and Application to a Pharmacokinetic Study in Rats” (Evidence-based Complementary and Alternative Medicine : eCAM, 2019).

How the values were obtained:
[1] = Pharmacokinetic study in rats after oral administration of Semen Cuscutae extract (HPLC-MS/MS of plasma); format: in vivo, Sprague–Dawley rats; conditions: oral Semen Cuscutae extract 13 g/kg; for Tmax / half-life / AUC(0-inf) / Cmax / AUC: male, Sprague-Dawley; for Tmax / half-life: rat, plasma, po, 13 g/kg; for AUC: read-out: AUC(0-tn)
Description: 20 μL of methanol, 20 μL of IS (liquiritin, 200 ng/mL) and 20 μL of formic acid were added to 100 μL of plasma sample and then vortex-mixed. The mixture was extracted with 800 μL of acetonitrile by vortexing for 3 min. After centrifugation at 14000 rpm for 10 min, the supernatant was transferred to a clean glass tube and dried with nitrogen. The residue was reconstituted in 100 μL of methanol and then centrifuged at 14000 rpm for 10 min. 5 μL of supernatant was injected into the LC–MS/MS system for analysis.
Six Sprague–Dawley rats (SPF, 200 ± 10 g, male) were purchased from HFK Laboratory Animal Technology Co., Ltd. The rats were housed in a standard laboratory condition (12 h dark-light cycle; temperature was 25°C ± 2°C and humidity was kept 50 ± 5%) and fed standard dry pellet diet and water for one week for acclimatization. Before the experiments, the rats were in fasting state for 12 h, with free access to water. The Semen Cuscutae extracts were dissolved in 0.5% carboxymethyl cellulose-sodium, prepared into suspension and gavage to the rats at a dose of 13 g/kg. Approximately 200 μL of rat blood samples was collected from the orbital venous plexus at 0, 0.03, 0.08, 0.17, 0.25, 0.5, 1, 2, 4, 6, 8, 10, 12, 24, 36, and 48 h after oral administration into 1.5 mL heparinized centrifuge tube. After centrifugation at 7000 rpm for 10 min immediately, the supernatant was collected into a new centrifuge tube and stored at −70°C until analysis.
Pharmacokinetic parameters (Cmax, t1/2, Tmax, AUC(0-tn), and AUC(0-∞)) were obtained using the software “Drug and Statistics 3.0” (DAS 3.0) (Medical College of Wannan, China).

[2] = Stability of analytes in rat plasma QC samples under processing and storage conditions; format: in vitro ADME; conditions: n = 6; for Measured concentration, room temperature for 4h / Measured concentration, three freeze-thaw / Measured concentration, −70°C for 21 days: rat plasma; for Measured concentration, autosampler for 12h: treated rat plasma sample
Description: The stability of the 13 analytes was evaluated by QC samples in different processing and storage conditions, including short-term stability (putting the analytes in ambient temperature for 4 h and storing analytes in autosampler for 12 h after treatment), long-term stability (storing the analytes at −70°C for 21 days) and subjecting analytes to three freeze-thaw cycles. All stability experiments were tested in six parallels with low, middle, and high concentrations.

Row | half-life ([1]; n = 6) [h] | AUC(0-inf) ([1]; rat plasma, n = 6) [ng·h/mL] | Cmax ([1]; rat plasma, n = 6) [ng/mL] | AUC ([1]; rat plasma, n = 6) [ng·h/mL] | t 1/2 ([1]; rat plasma, n = 6) [h] | Measured concentration, room temperature for 4h ([2]; spiked 2 ng/mL) [ng/mL] | Measured concentration, three freeze-thaw ([2]; spiked 2 ng/mL) [ng/mL] | Measured concentration, −70°C for 21 days ([2]; spiked 2 ng/mL) [ng/mL] | Measured concentration, room temperature for 4h ([2]; spiked 25 ng/mL) [ng/mL] | Measured concentration, three freeze-thaw ([2]; spiked 25 ng/mL) [ng/mL] | Measured concentration, −70°C for 21 days ([2]; spiked 25 ng/mL) [ng/mL] | Measured concentration, room temperature for 4h ([2]; spiked 250 ng/mL) [ng/mL] | Measured concentration, three freeze-thaw ([2]; spiked 250 ng/mL) [ng/mL] | Measured concentration, −70°C for 21 days ([2]; spiked 250 ng/mL) [ng/mL] | Measured concentration, autosampler for 12h ([2]; spiked 2 ng/mL) [ng/mL] | Measured concentration, autosampler for 12h ([2]; spiked 25 ng/mL) [ng/mL] | Measured concentration, autosampler for 12h ([2]; spiked 250 ng/mL) [ng/mL] | Structure (SMILES) | Tmax ([1]; n = 6) [h] | also measured
1 | > 7.5 | 652 ± 292 | 33.7 ± 8.43 | 613 ± 291 | 11.60 ± 0.92 | 2.1 ± 0.1 | 2.1 ± 0.1 | 2.0 ± 0.1 | 27.9 ± 1.0 | 27.0 ± 1.3 | 26.0 ± 0.6 | 272.5 ± 8.9 | 255.7 ± 3.9 | 250.2 ± 5.1 | 2.2 ± 0.1 | 28.1 ± 0.8 | 262.6 ± 7.4 | O=C(O)/C=C/c1ccc(O)c(O)c1 [Caffeic acid] | 0.28 ± 0.04 | –
2 | < 1.5 | 1000 ± 646 | 35.5 ± 7.3 | 995 ± 654 | 1.02 ± 0.67 | 2.1 ± 0.1 | 2.1 ± 0.1 | 2.1 ± 0.1 | 27.7 ± 1.6 | 28.1 ± 1.0 | 26.6 ± 1.2 | 258.4 ± 15.7 | 268.6 ± 15.8 | 253.6 ± 7.7 | 2.1 ± 0.1 | 26.6 ± 1.6 | 253.1 ± 6.0 | O=C(/C=C/c1ccc(O)c(O)c1)O[C@@H]1C[C@](O)(C(=O)O)C[C@@H](O)[C@H]1O [Chlorogenic acid] | – | T max ([1]; rat plasma, n = 6): 0.22 ± 0.06 h; T max ([1]; rat plasma, n = 6, listed as chlorogenic acid): less than 1 h

Row | Structure (SMILES) | half-life ([1]; n = 6) [h] | AUC(0-inf) ([1]; rat plasma, n = 6) [ng·h/mL] | Cmax ([1]; rat plasma, n = 6) [ng/mL] | AUC ([1]; rat plasma, n = 6) [ng·h/mL] | t 1/2 ([1]; rat plasma, n = 6) [h] | Measured concentration, room temperature for 4h ([2]; spiked 2 ng/mL) [ng/mL] | Measured concentration, three freeze-thaw ([2]; spiked 2 ng/mL) [ng/mL] | Measured concentration, −70°C for 21 days ([2]; spiked 2 ng/mL) [ng/mL] | Measured concentration, room temperature for 4h ([2]; spiked 25 ng/mL) [ng/mL] | Measured concentration, three freeze-thaw ([2]; spiked 25 ng/mL) [ng/mL] | Measured concentration, −70°C for 21 days ([2]; spiked 25 ng/mL) [ng/mL] | Measured concentration, room temperature for 4h ([2]; spiked 250 ng/mL) [ng/mL] | Measured concentration, three freeze-thaw ([2]; spiked 250 ng/mL) [ng/mL] | Measured concentration, −70°C for 21 days ([2]; spiked 250 ng/mL) [ng/mL] | Measured concentration, autosampler for 12h ([2]; spiked 2 ng/mL) [ng/mL] | Measured concentration, autosampler for 12h ([2]; spiked 25 ng/mL) [ng/mL] | Measured concentration, autosampler for 12h ([2]; spiked 250 ng/mL) [ng/mL] | Tmax ([1]; n = 6) [h] | also measured
3 | C[C@@H]1O[C@@H](Oc2c(-c3ccc(O)c(O)c3)oc3cc(O)cc(O)c3c2=O)[C@H](O)[C@H](O)[C@H]1O [Quercitrin] | – | – | – | – | – | 2.1 ± 0.1 | 2.3 ± 0.1 | 2.0 ± 0.1 | 26.3 ± 0.7 | 26.9 ± 1.5 | 26.5 ± 0.5 | 252.5 ± 9.1 | 261.4 ± 10.3 | 247.9 ± 5.3 | 2.1 ± 0.1 | 26.4 ± 0.9 | 253.1 ± 4.7 | – | plasma concentration after 15 minutes of intragastric administration ([1]; rat plasma, LLOQ 1 ng/mL): lower than the LLOQ
4 | C[C@@H]1O[C@@H](OC[C@H]2O[C@@H](Oc3c(-c4ccc(O)c(O)c4)oc4cc(O)cc(O)c4c3=O)[C@H](O)[C@@H](O)[C@@H]2O)[C@H](O)[C@H](O)[C@H]1O [Rutin] | > 7.5 | 4790 ± 2240 | 158 ± 84.1 | 4460 ± 2270 | 7.70 ± 0.90 | – | – | – | – | – | – | – | – | – | – | – | – | 10 ± 0.03 | C max ([1]; rat plasma, n = 6): higher than that of other components; Measured concentration, room temperature for 4h ([2]; spiked 4 ng/mL): 3.9 ± 0.2 ng/mL; Measured concentration, three freeze-thaw ([2]; spiked 4 ng/mL): 4.0 ± 0.1 ng/mL; Measured concentration, −70°C for 21 days ([2]; spiked 4 ng/mL): 4.0 ± 0.1 ng/mL; Measured concentration, room temperature for 4h ([2]; spiked 50 ng/mL): 56.3 ± 2.3 ng/mL; Measured concentration, three freeze-thaw ([2]; spiked 50 ng/mL): 57.7 ± 1.0 ng/mL; Measured concentration, −70°C for 21 days ([2]; spiked 50 ng/mL): 52.7 ± 3.9 ng/mL; Measured concentration, room temperature for 4h ([2]; spiked 500 ng/mL): 505.7 ± 13.0 ng/mL; Measured concentration, three freeze-thaw ([2]; spiked 500 ng/mL): 513.1 ± 7.4 ng/mL; Measured concentration, −70°C for 21 days ([2]; spiked 500 ng/mL): 494.4 ± 8.8 ng/mL; Measured concentration, autosampler for 12h ([2]; spiked 4 ng/mL): 4.0 ± 0.2 ng/mL; Measured concentration, autosampler for 12h ([2]; spiked 50 ng/mL): 49.8 ± 2.7 ng/mL; Measured concentration, autosampler for 12h ([2]; spiked 500 ng/mL): 489.3 ± 14.2 ng/mL
